Source: PubChem BioAssay (NCI)
Several values for one entry are separate records, joined by “and”; a condition that tells them apart may be missing. Identical values can stand only once.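 Each compound was tested at five concentrations against cells in 96-well plates for 48 hours. Abbreviation: GI50, concentration required for 50% inhibition of growth. TGI: concentration producing complete growth inhibition.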

Experiments:
Test in all cases: NCI-60 cell line screen, 48 h
BT-549 breast = test system: BT-549 breast
EKVX NSCLC = test system: EKVX NSCLC
HCT-15 colon = test system: HCT-15 colon
M14 melanoma = test system: M14 melanoma
MCF7 breast = test system: MCF7 breast
MDA-MB-231 breast = test system: MDA-MB-231 breast
MDA-N = test system: MDA-N
MOLT-4 leukemia = test system: MOLT-4 leukemia
NCI-H23 lung = test system: NCI-H23 lung
NCI-H460 lung = test system: NCI-H460 lung
NCI-H522 lung = test system: NCI-H522 lung
OVCAR-3 ovarian = test system: OVCAR-3 ovarian
OVCAR-4 ovarian = test system: OVCAR-4 ovarian
RXF 393 renal = test system: RXF 393 renal
SW-620 colon = test system: SW-620 colon

SMILES | TGI (BT-549 breast) | TGI (EKVX NSCLC) | TGI (HCT-15 colon) | TGI (M14 melanoma) | TGI (MCF7 breast) | TGI (MDA-MB-231 breast) | TGI (MDA-N) | TGI (MOLT-4 leukemia) | TGI (NCI-H23 lung) | TGI (NCI-H460 lung) | TGI (NCI-H522 lung) | TGI (OVCAR-3 ovarian) | TGI (OVCAR-4 ovarian) | TGI (RXF 393 renal) | TGI (SW-620 colon) | GI50 (NCI-H23 lung) | GI50 (NCI-H522 lung) | GI50 (OVCAR-3 ovarian) | GI50 (OVCAR-4 ovarian)
O=c1oc2ccc([N+](=O)[O-])cc2nc1/C=C(\O)c1ccccc1 | > 100 µM | > 100 µM | > 100 µM | > 100 µM | > 100 µM | > 100 µM | > 100 µM | > 100 µM | > 100 µM | > 100 µM | > 100 µM | > 100 µM | > 100 µM | > 100 µM | > 100 µM |  |  |  | 
c1ccc(CN2CCC(=NN3CCCCC3)CC2)cc1 | > 100 µM | > 100 µM | > 100 µM | > 100 µM | > 100 µM | > 100 µM | > 100 µM | > 100 µM | > 100 µM | > 100 µM | > 100 µM | > 100 µM | > 100 µM | > 100 µM | > 100 µM |  |  |  | 
COc1ccc(/C=C2/N=C(N/N=C\C(O)C(O)C(O)CO)NC2=O)cc1 (centres undefined) | > 100 µM | > 100 µM | > 100 µM | > 100 µM | > 100 µM | > 100 µM | > 100 µM | > 100 µM | > 100 µM | > 100 µM | > 100 µM | > 100 µM and 67.8 µM | > 100 µM | > 100 µM | > 100 µM | > 100 µM and 42.1 µM | > 100 µM and 34.2 µM | > 100 µM and 24.3 µM | 40.9 µM and > 100 µM
COc1c(C)c(C/C=C(\C)CC/C=C(\C)CC/C=C(\C)CCC=C(C)C)c(OC)c(OC)c1OC | > 100 µM | > 100 µM | > 100 µM | > 100 µM | > 100 µM | > 100 µM | > 100 µM | > 100 µM | > 100 µM | > 100 µM | > 100 µM | > 100 µM | > 100 µM | > 100 µM | > 100 µM |  |  |  | 
C=C1C(=O)OC2C1CCC(=C)C1CC(O)C(=C)C12 (centres undefined) | 30.4 µM | 20.3 µM | 25.1 µM | 41 µM | 25.5 µM | 31.6 µM | 26.7 µM | 25 µM | 34 µM | 36.6 µM | 6.39 µM | 27.9 µM | 33.7 µM | 29.9 µM | 43.6 µM |  |  |  | 
O=[N+]([O-])c1cc(C2(N3CCCCC3)CCCCC2)sc1Br | 24.3 µM | 24.6 µM | 17.2 µM | 21.9 µM | 8.6 µM | 27.4 µM | 23.3 µM | 8.12 µM | 26.5 µM | 29.5 µM | 6.78 µM | 7.4 µM | 27.1 µM | 13.2 µM | 21.3 µM |  |  |  | 
